# Measurements published in patent US8506943B2, “Cyclohexylethyl carboxylic acid ester compositions and method for using the same for reducing malodors” (International Flavors & Fragrances Inc., priority 2009, dated 2013).
# Marks after values point to notes of the source that are not given here.
# Tests used:
# Design in all cases: species or system human
# [1] = Sweat malodor model (IVA), panel mean rank of odor intensity (Example V); conditions: for mean rank of the odor intensity: 1 = least intense, 5 = most intense, set of racemate, S and R
# Source text: (§1) Establishment of a Model of Sweat Malodor: It is known that the perspirative malodors of human body, particularly sweat, are associated with the production of several unpleasant smelling organic acids, particularly isovaleric acid (“IVA”). The commercial sample of this malodorous material (commercially available at Sigma-Aldrich Inc.) was thus used as a model compound to assess the effectiveness of sweat malodor counteractants.
# (§2) Preparation of Test Samples: The VEILEX™ mixtures (VEILEX™ I, VEILEX™ II, and VEILEX™ III, commercially available from IFF) and the enantiomeric compounds of the present invention (all with optical purity over 80% ee, synthesized as above) were evaluated for sweat malodor counteracting effectiveness. Different concentrations of VEILEX™ mixtures and their enantiomeric counterparts were used based on the priori usage levels. Additionally, the overall intensity of 1-cyclohexylethanol (1% in diethyl phthalate) was noticeably greater than the other two compounds, a higher concentration of IVA (2% in diethyl phthalate) was therefore used for the test.
# (§3) Testing Procedure: A cyclohexylethyl carboxylic acid ester compound (1 g, a racemate or enantiomer) and IVA (1 g, 1-2%) were placed in two 1-ounce jars separately, which were both placed in a 1-gallon jar and capped for 24 hours to allow for the headspace saturation prior to the test. Each set of three test samples (i.e., three 1-gallone jars containing IVA and, respectively, a racemate and each of the two enantiomers) was presented in a blind, random order to internal panelists (consisting of trained females having a mean age of 40 years).
# (§4) The panelists were instructed to take the steps of i) uncap a first jar; ii) place their noses immediately above the opening; iii) take short sniffs for 2-3 seconds; iv) cap the jar; v) repeat the steps for the other two jars in the same set; and vi) provide a rank of the odor intensity for a set of three jars using the intensity scales of 1 to 5, where 1 represents the “Least Intense” and 5 represents the “Most Intense”. The ranks of the odor intensity were then statistically analyzed using SPSS 15.0 for Windows. Freidman's non-parametric tests were used to analyze the ranked intensity for each test sample. Post hoc pair-wise comparisons were only conducted when the overall Chi-square omnibus test was statistically significant (p<0.05).
# [2] = Sweat malodor model (IVA), number of panelists ranking more intense (Example VI); conditions: for rank of the odor intensity (number of panelists who ranked the more intense): S vs R
# Source text: as §1, §2, §3, §4
# (§5) Testing Procedure: Test samples were prepared the same as above. The same procedure was carried out except the ranks of the odor intensity were recorded based on the numbers of the panelists who ranked the more intense.
# [3] = Mold/mildew malodor model, number of panelists ranking more intense (Example VI); conditions: for rank of the odor intensity (number of panelists who ranked the more intense): Mold/Mildew, S vs R
# Description: as §3, §4
# (§6) Establishment of Mold/Mildew and Bathroom Malodor Models: In addition to the sweat model established as above, the malodor models of mold/mildew and bathroom were prepared based on applicant's proprietary formulations for assessing the effectiveness of mold/mildew and bathroom malodor counteractants.
# as §5
# [4] = Bathroom malodor model, number of panelists ranking more intense (Example VI); conditions: S vs R
# Description: as §3, §4, §6, §5
# [5] = Mold/mildew malodor intensity on Labeled Magnitude Scale, concentration series (Example VII); conditions: for Malodor Intensity: LMS mean, 0-100; for % MOR (percent malodor reduction): vs Malodor Alone
# Description: (§7) Determination of an Effective Concentration of (1R)-1-cyclohexylethyl butyrate: To further identify an effective concentration of (1R)-1-cyclohexylethyl butyrate in counteracting mold/mildew malodor, (1R)-1-cyclohexylethyl butyrate was prepared at a series of concentrations, ranging from 0.05% to 10% in diethyl phthalate, with corresponding vapor phase concentrations ranging from about 0.3 to about 60 μg per liter of air space.
# Testing Procedure: The same procedure was carried out as in Example VI to evaluate the effectiveness of different concentrations of (1R)-1-cyclohexylethyl butyrate (“VEILEX™ 1R”) in counteracting mold/mildew malodor. The odor intensity was rated using Labeled Magnitude Scale (LMS) [Green, et al., Chemical Senses, 21(3), June 1996, 323-334]. Mean (“Malodor Intensity”) and standard error of the mean (“SE”, ±) were obtained, where 0 represents “No Sensation” and 100 represents “The Strongest Imaginable Malodor Sensation”. Percent malodor reduction (“% MOR”) represents the reduction in mean malodor intensity of the negative control (Malodor Alone) in the presence of an enantiomeric cyclohexylethyl carboxylic acid ester.
# [6] = Sweat malodor (1% IVA) intensity on Labeled Magnitude Scale, concentration series (Example VIII); conditions: for Malodor Intensity: LMS mean, 0-100; for % MOR (percent malodor reduction): vs Malodor Alone
# Description: as §7, with “(1S)-1-cyclohexylethyl acetate:” for “(1R)-1-cyclohexylethyl butyrate:”, “(1S)-1-cyclohexylethyl acetate” for “(1R)-1-cyclohexylethyl butyrate”, “sweat” for “mold/mildew”, “5%” for “10%”, “1.5” for “0.3”, “150” for “60”
# Testing Procedure: The same procedures were carried out as in Examples V and VII to evaluate the effectiveness of different concentrations of (1S)-1-cyclohexylethyl acetate (“VEILEX™ 2S”) in counteracting sweat malodor modeled by 1% of IVA.
# [7] = compared with enantiomeric counterpart
smiles,measurement,setting,value
"CC(=O)OC(C)C1CCCCC1 (racemic) [1-cyclohexylethyl acetate M, 1-cyclohexylethyl acetate, reference compound]",mean rank of the odor intensity,"[1]; IVA (1%), test compound 2%",2.15
"C[C@H](O)C1CCCCC1 [1-cyclohexylethanol S, (S)-1-cyclohexylethanol]",rank of the odor intensity (number of panelists who ranked the more intense),"[2]; IVA (2%), test compound 1%",7
same,mean rank of the odor intensity,"[1]; IVA (2%), test compound 1%",1.92
same,rank of the odor intensity (number of panelists who ranked the more intense),[3]; test compound 1%,12
same,rank of the odor intensity (number of panelists who ranked the more intense),[4]; test compound 1%,12
"CCCC(=O)O[C@H](C)C1CCCCC1 [1-cyclohexylethyl butyrate R, (1R)-1-cyclohexylethyl butyrate]",rank of the odor intensity (number of panelists who ranked the more intense),"[2]; IVA (1%), test compound 5%",4
same,mean rank of the odor intensity,"[1]; IVA (1%), test compound 5%",1.42
same,Malodor Intensity,"[5]; 0.05%, 0.3 μg/L",13.70
same,% MOR (percent malodor reduction),"[5]; 0.05%, 0.3 μg/L",13%
same,Malodor Intensity,"[5]; 0.1%, 0.6 μg/L",11.86
same,% MOR (percent malodor reduction),"[5]; 0.1%, 0.6 μg/L",24%
same,Malodor Intensity,"[5]; 0.5%, 3 μg/L",12.03
same,% MOR (percent malodor reduction),"[5]; 0.5%, 3 μg/L",23%
same,Malodor Intensity,"[5]; 1%, 6 μg/L",11.66
same,% MOR (percent malodor reduction),"[5]; 1%, 6 μg/L",22%
same,Malodor Intensity,"[5]; 10%, 60 μg/L",8.25
same,% MOR (percent malodor reduction),"[5]; 10%, 60 μg/L",47%
same,rank of the odor intensity (number of panelists who ranked the more intense),[3]; test compound 5%,5*
same,effectiveness in counteracting mold/mildew malodor (in words),[3]; [7],significantly and specifically effective in counteracting mold/mildew malodor
same,rank of the odor intensity (number of panelists who ranked the more intense),[4]; test compound 5%,13
"CCCC(=O)OC(C)C1CCCCC1 (racemic) [1-cyclohexylethyl butyrate M, 1-cyclohexylethyl butyrate, reference compound]",mean rank of the odor intensity,"[1]; IVA (1%), test compound 5%",2.50
"C[C@@H](O)C1CCCCC1 [1-cyclohexylethanol R, (R)-1-cyclohexylethanol]",rank of the odor intensity (number of panelists who ranked the more intense),"[2]; IVA (2%), test compound 1%",5
same,mean rank of the odor intensity,"[1]; IVA (2%), test compound 1%",1.50
same,rank of the odor intensity (number of panelists who ranked the more intense),[3]; test compound 1%,13
same,rank of the odor intensity (number of panelists who ranked the more intense),[4]; test compound 1%,13
"CC(=O)O[C@@H](C)C1CCCCC1 [1-cyclohexylethyl acetate S, (1S)-1-cyclohexylethyl acetate]",rank of the odor intensity (number of panelists who ranked the more intense),"[2]; IVA (1%), test compound 2%",2*
same,effectiveness in counteracting sweat malodor (in words),[2]; [7],significantly and specifically effective in counteracting sweat malodor
same,mean rank of the odor intensity,"[1]; IVA (1%), test compound 2%",1.38*
same,effectiveness in counteracting sweat malodor (in words),[1]; compared with racemate and R enantiomer,particularly effective in counteracting sweat malodor
same,rank of the odor intensity (number of panelists who ranked the more intense),[3]; test compound 2%,14
same,Malodor Intensity,"[6]; 0.05%, 1.5 μg/L",17.98
same,% MOR (percent malodor reduction),"[6]; 0.05%, 1.5 μg/L",23%
same,Malodor Intensity,"[6]; 0.1%, 3 μg/L",18.29
same,% MOR (percent malodor reduction),"[6]; 0.1%, 3 μg/L",23%
same,Malodor Intensity,"[6]; 0.5%, 15 μg/L",14.8
same,% MOR (percent malodor reduction),"[6]; 0.5%, 15 μg/L",37%
same,Malodor Intensity,"[6]; 1%, 30 μg/L",14.15
same,% MOR (percent malodor reduction),"[6]; 1%, 30 μg/L",42%
same,Malodor Intensity,"[6]; 5%, 150 μg/L",8.35
same,% MOR (percent malodor reduction),"[6]; 5%, 150 μg/L",55%
same,rank of the odor intensity (number of panelists who ranked the more intense),[4]; test compound 2%,13
"CC(=O)O[C@H](C)C1CCCCC1 [1-cyclohexylethyl acetate R, (R)-1-cyclohexylethyl acetate]",rank of the odor intensity (number of panelists who ranked the more intense),"[2]; IVA (1%), test compound 2%",11
same,mean rank of the odor intensity,"[1]; IVA (1%), test compound 2%",2.46
same,rank of the odor intensity (number of panelists who ranked the more intense),[3]; test compound 2%,11
same,rank of the odor intensity (number of panelists who ranked the more intense),[4]; test compound 2%,12
"CCCC(=O)O[C@@H](C)C1CCCCC1 [1-cyclohexylethyl butyrate S, (S)-1-cyclohexylethyl butyrate]",rank of the odor intensity (number of panelists who ranked the more intense),"[2]; IVA (1%), test compound 5%",8
same,mean rank of the odor intensity,"[1]; IVA (1%), test compound 5%",2.08
same,rank of the odor intensity (number of panelists who ranked the more intense),[3]; test compound 5%,20
same,rank of the odor intensity (number of panelists who ranked the more intense),[4]; test compound 5%,12
"CC(O)C1CCCCC1 (racemic) [1-cyclohexylethanol M, 1-cyclohexylethanol, reference compound]",mean rank of the odor intensity,"[1]; IVA (2%), test compound 1%",2.58
